Experimental data reported in patent US20200255492A1, “LEPTIN PEPTIDES AND THEIR USE FOR TREATING NEUROLOGICAL DISORDERS” (UNIVERSITY OF DUNDEE, priority 2017, published 2020).

Assays:
[1] = test system: juvenile hippocampal slices; test: HFS-induced synaptic plasticity and its inhibition by Aβ1-42; assay type: cell-based, Sprague Dawley rats; details: for synaptic transmission after HFS in slices exposed to Aβ1-42: 25 nM before Aβ1-42
Protocol: Parasagittal hippocampal slices (300 μm) were prepared from either P13-21 or 12-24-week-old male Sprague Dawley rats as previously (Moult et al. 2010). Brains were rapidly removed and placed in ice-cold artificial CSF (aCSF; bubbled with 95% O2 and 5% CO2) containing the following (in mm): 124 NaCl, 3 KCl, 26 NaHCO3, 1.25 NaH2PO4, 2 CaCl2, 1 MgSO4, and 10 d-glucose. Once prepared, parasagittal slices were allowed to recover at room temperature in oxygenated aCSF for 1 h before use. Slices were transferred to a submerged chamber maintained at room temperature and perfused with artificial cerebrospinal fluid at 2 ml min^−1. Standard extracellular recordings were used to monitor evoked field excitatory postsynaptic potentials (fEPSP) from stratum radiatum. The Schaffer collateral-commissural pathway was stimulated (constant voltage; 0.1 ms) at 0.033 Hz, using a stimulus intensity that evoked a peak amplitude ˜50% of the maximum. Synaptic potentials were low pass filtered at 2 kHz and digitally sampled at 10 kHz. The fEPSP slope was measured and expressed relative to baseline. Synaptic records are the average of 4 consecutive responses and stimulus artefacts are blanked for clarity. Recordings were made using an Axopatch 200B amplifier and analyzed using LTP v2.4 software. In synaptic plasticity studies, the degree of potentiation was calculated 30-35 min after HFS and expressed as a percentage of baseline±standard error of mean (SEM).
Several studies indicate that soluble Aβ oligomers impair activity-dependent synaptic plasticity, as exposure to Aβ inhibits hippocampal LTP (Shankar et al. 2008; Li et al. 2009) and enhances LTD (Shankar et al. 2008). Moreover, our recent studies indicate that leptin reverses the detrimental effects of Aβ1-42 on both LTP and LTD (Doherty et al. 2013). Thus we assessed if either of the fragments mirrored the protective actions of leptin on hippocampal synaptic plasticity. Initially we determined that application of leptin prevented the acute effects of Aβ1-42 on LTP. In control slices, synaptic plasticity was induced using high frequency stimulation (HFS; 100 Hz 10 trains of 8 stimuli) which increased synaptic transmission to 127±3.4% of baseline (n=8; P<0.01).

[2] = test system: differentiated human neural cells (SH-SY5Y); test: LDH release assay (membrane leakage, cell death); assay type: cell-based; details: for reduction of LDH release compared with Aβ1-42 alone, hexamer study: n=11; for reduction of LDH release in Aβ1-42 treated cells: n=5; for reduction of LDH release compared with CuCl2 alone: 5 μM CuCl2
Protocol: The human neuroblastoma cell line, SH-SY5Y (ECACC, UK) was maintained in Dulbecco's Modified Eagle Medium supplemented with glucose ([…]) and 10% (v/v) cosmic calf serum (Fisher Scientific, UK) at 37° C. in a humidified atmosphere of 5% CO2, 95% air and allowed to reach 70-80% confluence before seeding. Cells (passage 10-18) were plated at 10 000 cells per well in 96 well tissue culture plates (Nunc, VWR, UK) and at a density of 2×10^5 cells in 35 mm dishes for protein extraction. To induce differentiation, cells were cultured in DMEM supplemented with glucose ([…]), 1% (v/v) cosmic calf serum and 10 μM retinoic acid for 5 days. Thereafter they were incubated in DMEM supplemented with glucose ([…]), serum replacement 2 (2%; Sigma, UK) and 18 μM 5-fluorodeoxyuridine to inhibit proliferation of undifferentiated cells. The 50% of the medium was changed every 2-3 days and pharmacological treatment was carried out 7 days after switching to this medium. Reagents used were (from Sigma UK unless stated) 0.1-10 nM human leptin and leptin (116-130); 0.1-10 nM leptin (22-56; Bachem; Switzerland); 10 nM leptin (116-121) leptin (117-122), leptin (124-129) or leptin (125-130; all Severn Biotech, UK); 5 μM copper chloride; […], 5 μM WP1066 or 50 nM wortmannin. All treatments were added to the culture at the same time and survival assays were carried out after 96 h treatment. Protein samples for signaling ELISA were extracted 3 h after exposure to the relevant reagents and for biomarker expression after 72 hours.
The concentration of lactate dehydrogenase (LDH) in the culture medium or the mitochondrial activity within cells was used to monitor the level of cell death, as previously (Oldreive and Doherty 2010). In certain experiments, a Crystal violet assay was used to assess total cell number. Cells were fixed in neutral buffered formalin and washed 3 times in PBS prior to staining with 0.01% crystal violet acetate for 5 min. Plates were washed 5-10 times in dH2O and cells solubilised in 100 μl dimethyl sulfoxide (DMSO) before reading the absorbance on a Biohit BP100 plate reader. For all assays, data is expressed as percentage relative to control, untreated wells to normalize for differences in plating density between individual experiments.
To determine whether leptin (116-130) has neuroprotective actions, the effects of leptin (116-130) on the viability of differentiated human neural cells (SH-SY5Y) was examined after exposure to either 5 μM CuCl2 or 10 μM Aβ1-42. Cells were treated with the toxin alone or with a range of concentrations (10-0.1 nM) of leptin or leptin (116-130). […] Thus like leptin, treatment with leptin (116-130) reduces neuronal death in response to AD-linked toxins in vitro.

hippocampal cultures = test: Synaptophysin staining and surface GluA1-synaptophysin colocalization; assay type: cell-based, Sprague Dawley rats; details: for colocalization between surface GluA1 and synaptophysin immunostaining: control 43±5.4%; for synaptophysin staining: leptin 50 nM, 30 min
Protocol: Hippocampal cultures were prepared from neonatal Sprague Dawley rats as before (O'Malley et al. 2007). Briefly, neonatal Sprague Dawley rats (1-3 days old) were killed by cervical dislocation in accordance with Schedule 1 of the United Kingdom Government Animals (Scientific Procedures) Act, 1986 and the hippocampi removed. After washing in HEPES buffered saline (HBS) comprising (mM): NaCl 135; KCl 5; CaCl2 1; MgCl2 1; HEPES 10; D-glucose 25 at pH 7.4; cells were treated with protease Type X and Type XIV (0.5 mg/ml; Sigma) for 25 min at room temperature. Dissociated cells were plated onto sterile dishes (Falcon 3001) treated with poly-1-lysine (20 μg/ml; 1-2 h) and maintained in MEM with serum replacement-2 (Sigma) in a humidified atmosphere of 5% CO2 and […] at 37° C. for up to 3 weeks.
To monitor GluA1 surface expression, immunocytochemistry was performed on hippocampal cultures (7-14 DIV) as before (Moult et al. 2010). […] Neurons were then fixed with 4% paraformaldehyde (5 min) before adding an appropriate fluorescently labelled secondary.
As excitatory synaptic strength is governed by the density of AMPA receptors expressed at synapses, the effects on synaptic AMPA receptors was examined by comparing the colocalization between surface GluA1 and synaptophysin immunolabelling in hippocampal cultures (Moult et al. 2010). […] Similarly, in hippocampal neurons treated with leptin (116-130), synaptophysin staining was increased to 122±9% (n=36; P<0.05) and a significant increase (to 64±4.9%; n=36; P<0.01) in GluA1-synaptophysin colocalization was observed (FIG. 2E). Conversely, exposure to leptin (22-56) had no significant effect on either synaptophysin staining (105±9%; n=36; P>0.05) or the degree of colocalization (49±5.4%; n=36; P>0.05; FIG. 2E).

Substance | reduction of LDH release compared with Aβ1-42 alone, hexamer study ([2]; 10 nM, 10 μM Aβ1-42) [%] | colocalization between surface GluA1 and synaptophysin immunostaining (hippocampal cultures) [%] | synaptophysin staining (hippocampal cultures) | synaptic transmission after HFS in slices exposed to Aβ1-42 [1] | reduction of LDH release in Aβ1-42 treated cells ([2]; 0.1 nM, 10 μM Aβ1-42) [%] | reduction of LDH release compared with CuCl2 alone ([2]; 10 nM) [%] | reduction of LDH release in Aβ1-42 treated cells ([2]; 10 nM, 10 μM Aβ1-42) [%] | further results
Aβ1-42: amyloid beta 1-42, toxin used in the AD models [reference compound] |  |  |  |  |  |  |  | synaptic transmission after HFS, Aβ peptide alone ([1]; control slices 127±3.4%, 40 min): 96±7.5 % of baseline; increase in LDH release, Aβ1-42 alone ([2]; 10 μM Aβ1-42): 26.7±4.4%
CSLPQT (listed as Mus musculus) [leptin (117-122)] | 27.4±3.5 |  |  |  |  |  |  | 
SCSLPQ (listed as Mus musculus) [leptin (116-121)] | 27.1±3.1 |  |  |  |  |  |  | 
SCSLPQTSGLQKPES (listed as Mus musculus) [leptin (116-130)] | 24.0 ± 2.2 | 64±4.9 | 122±9 % of control | 136±5.5 % of baseline | 26.7±17.3 | 45.6±2.92 | 46.6±9 | increase in LDH release with PI3-kinase inhibitor ([2]; leptin (116-130) and Aβ1-42-treated cells plus wortmannin (50 nM)): 26.9±9.8%; increase in LDH release with STAT3 inhibitor ([2]; leptin (116-130) and Aβ1-42-treated cultures plus WP1066 (5 μM)): 18.3±3.2%
leptin (22-56): leptin fragment amino acids 22-56 (Bachem), comparison fragment (VPIQKVQDDTKTLIKTIVTRINDISHTQSVSSKQK; UniProt P41159 22-56, looked up, fragment) [reference compound] |  | 49±5.4 | 105±9 % of control | 107±3.3 % of baseline |  |  |  | 
leptin: the metabolic hormone leptin, whole (full length) leptin molecule; human leptin from Sigma in SH-SY5Y work | 25.3±2.5 | 62±4.4 | 144±9 % of control | 135±6.3 % of baseline | 31.8±13.2 | 39.5±2.73 | 47.9±7.45 | 
